{"source": "ChEMBL document CHEMBL1649539", "about": "“Pharmacokinetics-pharmacodynamics of pyrazinamide in a novel in vitro model of tuberculosis for sterilizing effect: a paradigm for faster assessment of new antituberculosis drugs” (Antimicrob Agents Chemother, 2009)", "key": {"[1]": {"assay": "Ratio of AUC (0 to 24 hrs) to MIC associated with 2 log10CFU/ml bacterial count in patient infected with Mycobacterium tuberculosis H37Rv", "assay_type": "functional"}, "[2]": {"assay": "Ratio of AUC (0 to 24 hrs) to MIC associated with 0.5 log10CFU/ml bacterial count in patient infected with Mycobacterium tuberculosis H37Rv", "assay_type": "functional"}, "[3]": {"assay": "Ratio of AUC (0 to 24 hrs) to MIC associated with 1 log10CFU/ml bacterial count in patient infected with Mycobacterium tuberculosis H37Rv", "assay_type": "functional"}, "[4]": {"assay": "Clearance in Mycobacterium tuberculosis H37Rv", "assay_type": "ADME"}, "[5]": {"assay": "Elimination rate constant in Mycobacterium tuberculosis H37Rv", "assay_type": "ADME"}, "[6]": {"system": "Mycobacterium tuberculosis", "assay": "Antimycobacterial activity against Mycobacterium tuberculosis H37Rv isolated from patient with tuberculosis assessed as bacterial load per day at 15 to 30 mg/kg, po after 2.5 to 3 weeks", "assay_type": "functional"}, "[7]": {"system": "Mycobacterium tuberculosis", "assay": "Antimycobacterial activity against Mycobacterium tuberculosis H37Rv isolated from patient with tuberculosis at >= 15 mg/kg, po after 14 to 21 days", "assay_type": "functional, organism-based", "parameters": "dose 15 mg/kg"}, "[8]": {"assay": "Volume of distribution in Mycobacterium tuberculosis H37Rv", "assay_type": "ADME, organism-based", "conditions": "in vivo"}, "[9]": {"assay": "Absorption rate constant in Mycobacterium tuberculosis H37Rv", "assay_type": "ADME"}, "[10]": {"system": "Mycobacterium tuberculosis", "assay": "Antimycobacterial activity against Mycobacterium tuberculosis H37Rv isolated from patient with tuberculosis assessed as bacterial load per day at >= 15 mg/kg, po after 4 days", "assay_type": "functional"}}, "note": "The source made the active and inactive calls. The rule behind the calls is not given here.", "data": [{"molecule": "NC(=O)c1cnccn1", "note": "[PYRAZINAMIDE]", "values": [{"measurement": "log10CFU/ml", "setting": "[1]", "value": 66.67}, {"measurement": "log10CFU/ml", "setting": "[2]", "value": 9.43}, {"measurement": "log10CFU/ml", "setting": "[3]", "value": 20.26}, {"measurement": "clearance", "setting": "[4]", "value": 1.67, "unit": "mL/min/kg"}, {"measurement": "k el", "setting": "[5]", "value": "1.67e-05", "unit": "s⁻¹"}, {"measurement": "log10CFU/ml/day", "setting": "[6]", "value": 0.09}, {"measurement": "Activity", "setting": "[7]", "value": "inactive"}, {"measurement": "Vd", "setting": "[8]", "value": 1.68, "unit": "L/kg"}, {"measurement": "Ka", "setting": "[9]", "value": 3.45, "unit": "h⁻¹"}, {"measurement": "log10CFU/ml/day", "setting": "[10]", "value": 0.05}]}]}
